Data on 18 compounds can be found in patent US20250136606A1, “MODULATORS OF TRPML, THEIR COMPOSITIONS AND METHODS OF USE” (Caraway Therapeutics, Inc., priority 2021, published 2025).

Format in all cases: cell-based
Holding throughout (details): fluorescent calcium assay

In test [1] the target is T1, TRPML3 (Homo sapiens, UniProt Q8TDD5).
T1 construct: expressed in transfected cells
T1 sequence (Q8TDD5 1-553): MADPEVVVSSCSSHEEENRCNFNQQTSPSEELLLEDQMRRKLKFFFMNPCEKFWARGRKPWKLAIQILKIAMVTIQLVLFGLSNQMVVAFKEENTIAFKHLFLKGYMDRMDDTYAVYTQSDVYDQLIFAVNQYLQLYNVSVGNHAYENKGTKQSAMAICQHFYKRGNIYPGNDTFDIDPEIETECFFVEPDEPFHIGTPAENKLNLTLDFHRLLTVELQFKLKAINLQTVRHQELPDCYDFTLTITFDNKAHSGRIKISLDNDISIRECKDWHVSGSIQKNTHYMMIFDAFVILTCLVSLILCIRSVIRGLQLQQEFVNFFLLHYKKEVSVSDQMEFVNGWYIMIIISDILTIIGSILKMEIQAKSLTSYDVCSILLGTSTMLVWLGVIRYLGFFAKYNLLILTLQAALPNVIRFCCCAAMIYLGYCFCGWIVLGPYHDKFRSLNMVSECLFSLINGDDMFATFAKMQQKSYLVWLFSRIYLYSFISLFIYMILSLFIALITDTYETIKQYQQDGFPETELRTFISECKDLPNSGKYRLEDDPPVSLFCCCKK
Description: Fluorescent TRPML3 assay (performed as for TRPML1, substituting the TRPML3 subtype). Summed up: (§1)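 Compound series (final 6 nM-20 μM, half-log, triplicate) were added to Fluo4-AM-loaded HEK-293 Trex cells in 10 mM calcium Ringer's, expressing the human TRPML subtype after doxycycline 0.5 ug/mL induction. Percent activity versus positive/negative controls from 480/540 nm fluorescence; EC50 by non-linear regression.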

Test [2] concerns the target TRPML1 (Homo sapiens, UniProt Q9GZU1). Description: Fluorescent TRPML1 assay (Fluo4-AM calcium fluorescence in doxycycline-induced HEK-293 Trex cells). Summed up:
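hTRPML1 (mutated for cell-surface expression) in HEK-293 Trex, dox 0.5 ug/mL o/n; Fluo4-AM 1 uM ~60 min, then ~60 min de-esterification, dark; modified Ringer's + 10 mM Ca. Cmpds 20 uM–6 nM final, half-log, n=3. Ex480/Em540; % activity vs ctrls; EC50 by nonlinear regression.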

For test [3], the target named is T2, TRPML2 (Homo sapiens, UniProt Q8IZK6).
T2 construct: expressed in transfected cells
T2 sequence (Q8IZK6 1-566): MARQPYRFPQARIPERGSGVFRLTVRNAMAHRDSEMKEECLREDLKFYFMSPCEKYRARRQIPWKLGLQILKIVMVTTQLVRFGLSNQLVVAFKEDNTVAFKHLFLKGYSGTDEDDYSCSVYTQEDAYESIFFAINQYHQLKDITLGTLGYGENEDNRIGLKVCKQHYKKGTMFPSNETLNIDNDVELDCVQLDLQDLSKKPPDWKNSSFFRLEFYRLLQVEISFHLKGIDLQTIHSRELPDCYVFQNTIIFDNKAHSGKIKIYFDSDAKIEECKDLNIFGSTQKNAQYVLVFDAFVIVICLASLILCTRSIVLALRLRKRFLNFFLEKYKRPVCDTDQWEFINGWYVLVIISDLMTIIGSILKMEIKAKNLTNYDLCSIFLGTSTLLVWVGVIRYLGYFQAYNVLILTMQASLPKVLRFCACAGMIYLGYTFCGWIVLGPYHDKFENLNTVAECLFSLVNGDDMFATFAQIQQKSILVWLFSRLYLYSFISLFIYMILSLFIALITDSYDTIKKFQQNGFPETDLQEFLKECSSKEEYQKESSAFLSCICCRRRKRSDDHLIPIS
Description: Fluorescent TRPML2 assay (performed as for TRPML1, substituting the TRPML2 subtype). Summed up: as §1

The EC50 is the midpoint of the concentration-response curve.

Some results are limits rather than exact numbers.

Sequence of TRPML1 (Q9GZU1 whole entry L15A/L16A/L577A/L578A, form open): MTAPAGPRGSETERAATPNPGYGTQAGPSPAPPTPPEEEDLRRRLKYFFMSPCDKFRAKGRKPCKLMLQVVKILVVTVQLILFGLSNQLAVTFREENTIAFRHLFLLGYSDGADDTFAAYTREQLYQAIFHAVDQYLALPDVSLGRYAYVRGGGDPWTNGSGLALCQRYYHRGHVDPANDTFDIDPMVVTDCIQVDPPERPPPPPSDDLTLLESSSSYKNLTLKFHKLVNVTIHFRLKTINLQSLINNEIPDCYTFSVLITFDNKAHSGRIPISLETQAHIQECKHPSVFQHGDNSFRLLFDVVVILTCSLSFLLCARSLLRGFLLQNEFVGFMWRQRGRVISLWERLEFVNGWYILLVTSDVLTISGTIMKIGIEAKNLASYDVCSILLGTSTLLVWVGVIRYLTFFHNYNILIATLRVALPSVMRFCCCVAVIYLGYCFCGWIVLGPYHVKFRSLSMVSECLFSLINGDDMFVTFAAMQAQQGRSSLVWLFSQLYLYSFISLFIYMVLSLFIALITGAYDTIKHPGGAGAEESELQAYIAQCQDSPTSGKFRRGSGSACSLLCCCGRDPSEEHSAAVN

For the compound `CCOC(=O)N1C[C@H](C)N(c2ncnc3c2c(C2CC2)cn3-c2cccc(Cl)c2)C[C@H]1C` [Compound 132, Ethyl (2R,5S)-4-(7-(3-chlorophenyl)-5-cyclopropyl-7H-pyrrolo[2,3-d]pyrimidin-4-yl)-2,5-dimethylpiperazine-1-carboxylate], the EC50 in test [1] is 100 to 500 nM; in test [2], less than 100 nM; in test [3], greater than 2000 nM.
On the same counts, the results for `CCOC(=O)N1C[C@H](C)N(c2ncnc3c2c(-c2cccnc2)cn3-c2cccc(Cl)c2)C[C@H]1C` [Compound 133, Ethyl (2R,5S)-4-(7-(3-chlorophenyl)-5-(pyridin-3-yl)-7H-pyrrolo[2,3-d]pyrimidin-4-yl)-2,5-dimethylpiperazine-1-carboxylate] are 500 to 2000 nM, 100 to 500 nM and greater than 2000 nM.
On the same counts, the results for `C[C@@H]1CN(c2ncnc3c2c(-c2ccccc2F)cn3-c2ccccn2)[C@@H](C)CN1C(=O)OC(C)(C)C` [Compound 134, tert-butyl (2R,5S)-4-(5-(2-fluorophenyl)-7-(pyridin-2-yl)-7H-pyrrolo[2,3-d]pyrimidin-4-yl)-2,5-dimethylpiperazine-1-carboxylate] are less than 100 nM, less than 100 nM and 100 to 500 nM.
On the same counts, the results for `COc1cncc(-n2cc(-c3ccccc3F)c3c(N4C[C@@H](C)N(C(=O)OC(C)(C)C)C[C@@H]4C)ncnc32)c1` [Compound 135, tert-butyl (2R,5S)-4-(5-(2-fluorophenyl)-7-(5-methoxypyridin-3-yl)-7H-pyrrolo[2,3-d]pyrimidin-4-yl)-2,5-dimethylpiperazine-1-carboxylate] are less than 100 nM, less than 100 nM and 100 to 500 nM.
As to `Cc1ccnc(-n2cc(-c3ccccc3F)c3c(N4C[C@@H](C)N(C(=O)OC(C)(C)C)C[C@@H]4C)ncnc32)c1` [Compound 136, tert-butyl (2R,5S)-4-(5-(2-fluorophenyl)-7-(4-methylpyridin-2-yl)-7H-pyrrolo[2,3-d]pyrimidin-4-yl)-2,5-dimethylpiperazine-1-carboxylate], the EC50 in test [1], in test [2] and in test [3] was less than 100 nM in each case.
On to `CCOC(=O)N1C[C@H](C)N(c2ncnc3c2c(-c2ccccc2F)cn3-c2ccccn2)C[C@H]1C` [Compound 137, ethyl (2R,5S)-4-(5-(2-fluorophenyl)-7-(pyridin-2-yl)-7H-pyrrolo[2,3-d]pyrimidin-4-yl)-2,5-dimethylpiperazine-1-carboxylate], for which the EC50 in test [1] lay within 100 to 500 nM; in test [2], 100 to 500 nM; in test [3], 500 to 2000 nM.
Regarding `CCOC(=O)N1C[C@H](C)N(c2ncnc3c2c(-c2ccccc2F)cn3-c2cncc(OC)c2)C[C@H]1C` [Compound 138, ethyl (2R,5S)-4-(5-(2-fluorophenyl)-7-(5-methoxypyridin-3-yl)-7H-pyrrolo[2,3-d]pyrimidin-4-yl)-2,5-dimethylpiperazine-1-carboxylate], the half-maximal effective concentration (EC50) in test [1], in test [2] and in test [3] was 500 to 2000 nM in each case.
Turning to `C[C@H]1CN(C(=O)OC(C)(C)C)CCN1c1ncnc2c1c(C1CC1)cn2-c1cccc(Cl)c1` [Compound 139, tert-butyl (S)-4-(7-(3-chlorophenyl)-5-cyclopropyl-7H-pyrrolo[2,3-d]pyrimidin-4-yl)-3-methylpiperazine-1-carboxylate], the concentration for a half-maximal effect (EC50) in test [1], in test [2] and in test [3] was less than 100 nM in each case.
For `C[C@H]1CN(C(=O)OC(C)(C)C(F)(F)F)CCN1c1ncnc2c1c(C1CC1)cn2-c1cccc(Cl)c1` [Compound 140, 1,1,1-trifluoro-2-methylpropan-2-yl (S)-4-(7-(3-chlorophenyl)-5-cyclopropyl-7H-pyrrolo[2,3-d]pyrimidin-4-yl)-3-methylpiperazine-1-carboxylate], the EC50 in test [1], in test [2] and in test [3] was less than 100 nM each time.
In the case of `C[C@@H]1CN(C(=O)OC(C)(C)C(F)(F)F)CCN1c1ncnc2c1c(C1CC1)cn2-c1ccc(Cl)cc1` [Compound 141, 1,1,1-trifluoro-2-methylpropan-2-yl (R)-4-(7-(4-chlorophenyl)-5-cyclopropyl-7H-pyrrolo[2,3-d]pyrimidin-4-yl)-3-methylpiperazine-1-carboxylate], the concentration giving a half-maximal response (EC50) in test [1] was less than 100 nM; in test [2], less than 100 nM; in test [3], 100 to 500 nM.
As to `C[C@@H]1CN(c2ncnc3c2c(-c2ccccc2F)cn3-c2cccnc2)[C@@H](C)CN1C(=O)OC(C)(C)C` [Compound 142, tert-butyl (2R,5S)-4-(5-(2-fluorophenyl)-7-(pyridin-3-yl)-7H-pyrrolo[2,3-d]pyrimidin-4-yl)-2,5-dimethylpiperazine-1-carboxylate], the half-maximal effective concentration (EC50) in test [1] was less than 100 nM; in test [2] it was less than 100 nM; in test [3], 500 to 2000 nM.
Regarding `CCOC(=O)N1C[C@H](C)N(c2ncnc3c2c(-c2ccccc2F)cn3-c2cccnc2)C[C@H]1C` [Compound 143, ethyl (2R,5S)-4-(5-(2-fluorophenyl)-7-(pyridin-3-yl)-7H-pyrrolo[2,3-d]pyrimidin-4-yl)-2,5-dimethylpiperazine-1-carboxylate], the 50% effective concentration (EC50) in test [1] is 500 to 2000 nM; in test [2], 100 to 500 nM; in test [3], greater than 2000 nM.
On the same counts, the results for `CCOC(=O)N1C[C@H](C)N(c2ncnc3c2c(-c2ccccc2F)cn3-c2cc(C)ccn2)C[C@H]1C` [Compound 144, ethyl (2R,5S)-4-(5-(2-fluorophenyl)-7-(4-methylpyridin-2-yl)-7H-pyrrolo[2,3-d]pyrimidin-4-yl)-2,5-dimethylpiperazine-1-carboxylate] are less than 100 nM, less than 100 nM and 500 to 2000 nM.
On the same counts, the results for `CC(C)(C)OC(=O)N1CCN(c2ncnc3c2c(C2CC2)cn3-c2ccc(Cl)c(F)c2)CC1` [Compound 145, tert-butyl 4-(7-(4-chloro-3-fluorophenyl)-5-cyclopropyl-7H-pyrrolo[2,3-d]pyrimidin-4-yl)piperazine-1-carboxylate] are less than 100 nM, 100 to 500 nM and less than 100 nM.
For the compound `CC(C)(C)OC(=O)N1CCN(c2ncnc3c2c(C2CC2)cn3-c2cc(F)cc(F)c2)CC1` [Compound 146, tert-butyl 4-(5-cyclopropyl-7-(3,5-difluorophenyl)-7H-pyrrolo[2,3-d]pyrimidin-4-yl)piperazine-1-carboxylate], the EC50 in test [1] is less than 100 nM; in test [2], 100 to 500 nM; in test [3] it was 100 to 500 nM.
With `C[C@@H]1CN(C(=O)OC(C)(C)C)CCN1c1ncnc2c1c(C1CC1)cn2-c1ccc(Cl)cc1` [Compound 147, tert-butyl (R)-4-(7-(4-chlorophenyl)-5-cyclopropyl-7H-pyrrolo[2,3-d]pyrimidin-4-yl)-3-methylpiperazine-1-carboxylate], the EC50 in test [1] was less than 100 nM; in test [2], 100 to 500 nM; in test [3] it was 100 to 500 nM.
With `C[C@H]1CN(C(=O)OC(C)(C)C(F)(F)F)CCN1c1ncnc2c1c(C1CC1)cn2-c1ccc(Cl)cc1` [Compound 148, 1,1,1-trifluoro-2-methylpropan-2-yl (S)-4-(7-(4-chlorophenyl)-5-cyclopropyl-7H-pyrrolo[2,3-d]pyrimidin-4-yl)-3-methylpiperazine-1-carboxylate], the results for the EC50 in test [1], in test [2] and in test [3] were less than 100 nM, less than 100 nM and 100 to 500 nM, respectively.
Regarding `Cc1cncc(-n2cc(C3CC3)c3c(N4CCN(C(=O)OC(C)(C)C)CC4)ncnc32)c1` [Compound 149, tert-butyl 4-(5-cyclopropyl-7-(5-methylpyridin-3-yl)-7H-pyrrolo[2,3-d]pyrimidin-4-yl)piperazine-1-carboxylate], the values for the EC50 in test [1], in test [2] and in test [3] were 100 to 500 nM, 100 to 500 nM and 500 to 2000 nM, respectively.
